This test concerns phospho-Tau (S202,T205) in SH-SY5Y neuroblastoma cells. Put plainly: Okadaic acid-induced p-Tau accumulation in SH-SY5Y cells, co-incubation (AT8 immunoblot). The following applies: 100 nM OA alone, 3 h. Format: cell-based. How it is done: Reproducible hyperphosphorylated p-Tau accumulation can be induced in the SH-SY5Y neuroblastoma cell line following incubation with Okadaic Acid (OA), a small molecule inhibitor of protein phosphatase 2A (PP2A), according to the method described by Boban et al., J Neurosci Methods., S0165-0270(18)30297-8 (2018). In this experiment, SH-SY5Y cells were incubated with 100 nM OA alone or in combination with 2,4-DSPBN+NAC for three hours prior to harvesting the cells for immunoblot evaluations with the AT8 phospho-Tau (S202,T205) antibody or the housekeeping protein, GAPDH. […] Two doses of combinatorial 2,4-DSPBN+NAC (185 μM 2,4-DSPBN/500 μM NAC or 93 μM 2,4-DSPBN/250 μM NAC) were used in this experiment, each of which used a molar ratio that mimics the equal mass:mass ratios used in the in vivo studies (i.e. a 1:1 mass ratio of 2,4-DSPBN and NAC is equivalent to a 1:2.7 molar ratio).
Biological and technical replicates of the experiment described in FIG. 3 were conducted, and p-Tau(S202,T205) immunoblots (AT8 antibody) were subjected to densitometric evaluations of relative protein levels, using National Institutes of Health ImageJ software and the internal GAPDH protein standard. […]

`C=C1[C@@H](O)[C@@H]2O[C@]3(CC[C@H](/C=C/[C@@H](C)[C@@H]4CC(C)=C[C@@]5(O[C@H](C[C@@](C)(O)C(=O)O)CC[C@H]5O)O4)O3)CC[C@H]2O[C@@H]1[C@@H](O)C[C@H](C)[C@H]1O[C@@]2(CCCCO2)CC[C@H]1C` [OA, Okadaic Acid]: the “phospho-Tau(S202,T205) level relative to untreated control cells (immunoblot, FIG. 3)” value is on record as “marked phospho-Tau(S202,T205) accumulation”.
